Patent US20100310530A1, “Cell Therapy for Brain Tissue Damage” (StemCyte Inc., priority 2009, published 2010)

How the values were obtained:
[1] = system: cerebral ischemia rats; test: Neurological behavioral measurements after cerebral ischemia (MCA ligation); format: in vivo, rat; settings: GM6001 ip after HP-hUCB^34 implantation, or brefeldin A-incubated HP-hUCB^34; vs vehicle control
Experimental: (§2) Experimental rats and mice were divided into three groups (FIG. 2A): Intracerebral transplantation of hUCB^34 with HP (HP-hUCB^34), intracerebral transplantation of hUCB^34 without HP (hUCB^34), and a vehicle-control group. All transplantation took place on day 7. The HP-hUCB^34 group was treated in 1% O2 hypoxic conditions for 20-24 hours. Cerebral ischemia was induced in every experimental rat on day 0. At 7 days after cerebral ischemia, experimental rats in the two intracerebral hUCB^34 transplantation groups were injected stereotaxically with approximately 2×10^5 cells of hUCB^34 labeled with bis-benzimide in a 3-5 μL PBS suspension through a 26- or 30-gauge Hamilton syringe into 3 cortical areas, 3.0 to 5.0 mm (2.0 to 3.0 mm for mice) below the dura. The approximate coordinates for these sites were 1.0 to 2.0 mm (0 to 1.0 mm for mice) anterior to the bregma and 3.5 to 4.0 mm (2.0 to 2.5 mm for mice) lateral to the midline, 0.5 to 1.5 mm (0 to 1.0 mm for mice) posterior to the bregma and 4.0 to 4.5 mm (2.0 to 3.5 mm for mice) lateral to the midline, and 3.0 to 4.0 mm (1.5 to 2.5 mm for mice) posterior to the bregma and 4.5 to 5.0 mm (2.0 to 3.0 mm for mice) lateral to the midline. The needle was retained in place for 5 minutes after each injection and a piece of bone wax was applied to the skull defects to prevent leakage of the injected solution. […]

[2] = system: ischemic rat brains; test: Cell engraftment and neural differentiation in ischemic brain (immunofluorescent colocalization); format: in vivo; settings: injection of GM6001 or brefeldin A-pretreatment of cells
Experimental: as §2

[3] = system: cerebral ischemic rats; test: Neurite regeneration in vivo in cerebral ischemic rats; set-up: species or system rat; settings: cells incubated with 10 μg/mL brefeldin A
Experimental: Experimental rats and mice were divided into three groups (FIG. 2A): Intracerebral transplantation of hUCB^34 with HP (HP-hUCB^34), intracerebral transplantation of hUCB^34 without HP (hUCB^34), and a vehicle-control group. All transplantation took place on day 7. The HP-hUCB^34 group was treated in 1% O2 hypoxic conditions for 20-24 hours. Cerebral ischemia was induced in every experimental rat on day 0. At 7 days after cerebral ischemia, experimental rats in the two intracerebral hUCB^34 transplantation groups were injected stereotaxically with approximately 2×10^5 cells of hUCB^34 labeled with bis-benzimide in a 3-5 μL PBS suspension through a 26- or 30-gauge Hamilton syringe into 3 cortical areas, 3.0 to 5.0 mm (2.0 to 3.0 mm for mice) below the dura. […]
Measurement of neurite regeneration was performed as described earlier (Cafferty et al., 2004, J Neurosci 24:4432-4443). […] For quantification analysis, neurons with processes greater than twice the cell body diameter were counted as neurite-bearing cells. The length of the longest neurite of each neuron was measured from digitized images and quantified using imaging analysis software (SigmaScan 4.01.003).

[4] = system: hypoxia-inducible factor-1α (HIF-1α); test: Western blot of HIF-1α in HP- and DFX-treated hUCB^34 cells; format: cell-based, human; settings: HP- and DFX-treated hUCBs^34
Experimental: (§1) hUCB^34 cells (1×10^6/mL) were cultured in a StemSpan SFEM medium (StemCell Technologies, Vancouver, Canada) at 37° C. in 5% CO2-humidified incubators in normoxic (20% O2) or hypoxic (1% O2) conditions as previously described (Ivanovic et al., 2000, Br J Haematol 108:424-429). Hypoxic cultures were cultivated in a two-gas incubator (Jouan, Winchester, Va., USA) equipped with an O2 probe to regulate N2 levels. Cell number and viability were evaluated using trypan blue exclusion assay. For flowcytometry, cells were incubated with anti-human CD34 (Miltenyi Biotec, Gladbach, Germany) and then analyzed on a FACSCalibur flow cytometer (Becton, Dickinson and Co.). To produce chemical hypoxia, cells were treated in a medium containing […] of Desferrioxamine (DFX, Sigma-Aldrich, MO) that mimics hypoxic conditions by inhibiting the hydroxylation of a prolyl residue that is essential for the ubiquitination of HIF-1α (Schioppa et al., 2003, J Exp Med 198:1391-1402). […] The intensity of each band was measured using a Kodak Digital Science 1D Image Analysis System (Eastman Kodak, Rochester, N.Y.). The ratio of band intensity of Western blots in comparison with the internal control was calculated. Results were expressed as the mean value of the ratio±SEM for preparations.

[5] = system: Epac1; test: Western blot of Epac1 in hUCB^34 cells after hypoxia preconditioning or DFX; format: cell-based, human; settings: cells treated with DFX, under either hypoxic or normoxic conditions
Experimental: as §1

Row | SMILES | neurological behavior recovery after HP-hUCB^34 implantation in presence of inhibitor [1] | number of engrafted cells in HP-hUCB^34-treated rats with inhibitor [2] | neurite regeneration after transplantation of brefeldin A-incubated HP-hUCB^34 [3] | protein level of HIF-1α [4] | levels of Epac1 versus control cells [5]
1 | CNC(=O)[C@H](Cc1c[nH]c2ccccc12)NC(=O)[C@@H](CC(=O)NO)CC(C)C [GM6001] | almost no recovery | diminished | – | – | –
2 | C[C@H]1CCC/C=C/[C@@H]2C[C@H](O)C[C@H]2[C@H](O)/C=C/C(=O)O1 [brefeldin A] | down-regulated to the same extent as that of control group | diminished | could not promote the neurite regeneration | – | –
3 | CC(=O)N(O)CCCCCNC(=O)CCC(=O)N(O)CCCCCNC(=O)CCC(=O)N(O)CCCCCN [DFX, Desferrioxamine] | – | – | – | increase in the protein level | much higher levels of Epac1 than control cells
